From patent US20100240654A1, “HYDRAZIDE DERIVATIVES” (priority 2004, published 2010) come the findings set out here.

As a reminder, the IC50 is the concentration that inhibits the measured activity by half. Read a high IC50 as weaker potency.

In assay [1] the target is T1, human clotting factor VIIa (Homo sapiens, UniProt P08709).
T1 construct: a human clotting factor VIIa (Factor VIIa) purified sample; purchased Enzyme Research Laboratories (Factor VIIa); Calbiochem (tissue factor) HFVIIa (Factor VIIa); 612151 (tissue factor)
T1 sequence (P08709 213-466 limits assumed): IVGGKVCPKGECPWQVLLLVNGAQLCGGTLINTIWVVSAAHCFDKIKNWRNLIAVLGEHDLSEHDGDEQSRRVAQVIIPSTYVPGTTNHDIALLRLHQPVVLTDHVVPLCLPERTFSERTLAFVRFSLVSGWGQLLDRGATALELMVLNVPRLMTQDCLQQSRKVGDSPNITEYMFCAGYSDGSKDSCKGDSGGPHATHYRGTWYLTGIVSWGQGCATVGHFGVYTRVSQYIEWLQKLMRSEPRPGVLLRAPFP
T1 sequence (P08709 61-212 limits assumed): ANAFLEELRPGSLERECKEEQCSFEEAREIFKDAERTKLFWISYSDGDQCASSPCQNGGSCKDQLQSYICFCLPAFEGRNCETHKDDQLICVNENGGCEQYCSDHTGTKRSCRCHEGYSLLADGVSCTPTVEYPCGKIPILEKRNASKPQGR
T1 sequence (P13726 33-295 partner): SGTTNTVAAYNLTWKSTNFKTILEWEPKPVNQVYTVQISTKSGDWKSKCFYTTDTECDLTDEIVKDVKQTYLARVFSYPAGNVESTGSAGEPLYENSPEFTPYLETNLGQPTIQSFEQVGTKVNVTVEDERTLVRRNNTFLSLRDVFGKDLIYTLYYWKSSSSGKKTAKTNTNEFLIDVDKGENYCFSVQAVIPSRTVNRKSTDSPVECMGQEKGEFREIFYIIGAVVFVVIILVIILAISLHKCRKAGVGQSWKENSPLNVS
The assay is described as follows: Inhibitory activity against clotting factor VIIa (chromogenic substrate Spectrozyme FVIIa, with tissue factor). The assay is classed as biochemical. The settings on record: 10 nmol/L TF, 5 nmol/L Factor VIIa, room temperature 40 minutes, 405 nm. The protocol: Dimethylsulfoxide (DMSO) solutions were prepared with compounds of the invention at concentration of 10 mmol/L (10 mmol/L compound solutions).
One packet of tris-hydroxymethylaminomethane-preset (Tris Preset) (product of SIGMA Corp., Catalog No. T8293), 8.8 g of sodium chloride (NaCl) and 1 g of bovine serum albumin (BSA) were dissolved in 1 L of water to prepare a Tris-BSA buffer (100 mmol/L Tris, 0.15 mol/L NaCl, 0.1% BSA, pH 7.4).
The Tris-BSA buffer (180 μL) was added to the aforementioned 10 mmol/L compound solution (20 μL). A 10-fold dilution series was prepared for this mixture using the aforementioned Tris-BSA buffer, and solutions with the compound at concentrations of 1.0 mmol/L, 100, 10, 1, 0.1, 0.01 and 0.001 μmol/L were prepared (1.0 mmol-0.001 μmol/L compound solutions).
As a control, a solution was prepared by 10-fold dilution of DMSO with the Tris-BSA buffer (control 10% solution).
After dissolving one packet of Tris preset, NaCl (8.8 g) and BSA (1 g) in water (about 900 mL), there were added 1 mol/L aqueous calcium chloride (CaCl2) (15 mL) and 1 mg/mL aqueous cephalin (30 mL), and the total volume was brought to 1 L by adding water. To this solution was added a human tissue factor (TF) sample (product of Calbiochem, Catalog No. 612151) (450 μg) to a TF sample concentration of 10 nmol/L, and then a human clotting factor VIIa (Factor VIIa) purified sample (product of Enzyme Research Laboratories, Catalog No. HFVIIa) (250 μg) was added to a Factor VIIa purified sample concentration of 5 nmol/L, to prepare an enzyme solution (100 mmol/L Tris-HCl, 0.15 mol/L NaCl, 15 mmol/L CaCl2, 30 μg/mL cephalin, 1 mg/mL BSA, 10 nmol/L TF, 5 nmol/L Factor VIIa).
To 110 μL of this enzyme solution was added 15 μL of each of the 1.0 mmol-0.001 μmol/L compound solutions, and then 25 μL of a 1.0 mmol/L synthetic chromogenic substrate solution (Spectrozyme FVIIa) was added and the mixture was allowed to stand at room temperature for 40 minutes. Next, the amount of 4-nitroanilide released into the solution was quantitated by spectrophotometry (405 nm).
A control measurement was conducted in the same manner, using the control 10% solution instead of the compound solution.
This measurement yielded the enzyme reaction inhibition in the presence of 100 μmol/L to 0.1 nmol/L of each compound of the invention. The enzyme reaction inhibition at each compound concentration was subjected to non-linear regression analysis, and the IC50 value for inhibitory activity of each compound against clotting factor VIIa was calculated.

Assay [2] relates to healthy human plasma. The assay is described as follows: Blood clotting time prolongation (prothrombin time, steel ball method). Particulars: human thromboplastin, 37° C.

Consider `CCCOc1cc(OC)cc(C(Nc2ccc(C(=N)N)cc2)C(=O)NNC(=O)c2ccncc2)c1F.O=C(O)C(F)(F)F` (stereo not drawn) [Example 81, 4-{1-(2-Fluoro-5-methoxy-3-propoxyphenyl)-2-oxo-2-[N′-(pyridine-4-carbonyl)hydrazino]ethylamino}benzamidine trifluoroacetate], for which the half-inhibitory concentration (IC50) in assay [1] came out at 78 nM. Further, the “h PT × 1.1: compound concentration which produced 10% prolongation compared to the control clotting time” value in assay [2] amounted to 1.20 µM.

Consider `CCOc1cc(C(Nc2ccc(C(=N)N)cc2)C(=O)NNc2ccccc2C(=O)O)ccc1OCC(=O)N(C)C.O=C(O)C(F)(F)F` (stereo not drawn) [Example X-246, 2-[N′-[2-(4-Carbamimidoylphenylamino)-2-(4-dimethylcarbamoylmethoxy-3-ethoxyphenyl)acetyl]hydrazino]benzoic acid trifluoroacetate], for which half-maximal inhibition in assay [1] (IC50) was put at 165 nM. Also, the “h PT × 1.1: compound concentration which produced 10% prolongation compared to the control clotting time” value in assay [2] was 0.90 µM.

With `CCOc1cc(C(Nc2ccc(C(=N)N)cc2)C(=O)NNC(=O)c2ccncc2F)ccc1OCC(C)(C)N.O=C(O)C(F)(F)F` (stereo not drawn) [Example X-248, 4-[1-[4-(2-Amino-2-methylpropoxy)-3-ethoxyphenyl]-2-[N′-(3-fluoropyridine-4-carbonyl)-hydrazino]-2-oxoethylamino]benzamidine trifluoroacetate], the midpoint of inhibition in assay [1], the IC50, lay at 173 nM. Further, the “h PT × 1.1: compound concentration which produced 10% prolongation compared to the control clotting time” value in assay [2] is 0.83 µM.

On to `CCOc1cc(C(Nc2ccc(C(=N)N)cc2)C(=O)NNc2ccccc2C(=O)O)ccc1OC(C)CN(C)C.O=C(O)C(F)(F)F` (stereo not drawn) [Example X-251, 2-(N′-(2-(4-Carbamimidoylphenylamino)-2-(4-(2-dimethylamino-1-methylethoxy)-3-ethoxyphenyl)acetyl)hydrazino)benzoic acid trifluoroacetate], for which the 50% inhibitory concentration (IC50) in assay [1] was 166 nM. Further, the “h PT × 1.1: compound concentration which produced 10% prolongation compared to the control clotting time” value in assay [2] is 0.68 µM.

Turning to `CCOc1cc(C(Nc2ccc(C(=N)N)cc2)C(=O)NNC(=O)c2ccccc2Cl)ccc1OC(C)CN(C)C.O=C(O)C(F)(F)F` (stereo not drawn) [Example X-252, 4-(2-(N′-(2-Chlorobenzoyl)hydrazino)-1-(4-(2-dimethylamino-1-methylethoxy)-3-ethoxyphenyl)-2-oxoethylamino)benzamidine trifluoroacetate], 98 nM corresponded to half-maximal inhibition in assay [1] (IC50). In assay [2], the “h PT × 1.1: compound concentration which produced 10% prolongation compared to the control clotting time” value turned out to be 0.76 µM.

In turn, `CCOc1cc(C(Nc2ccc(C(=N)N)cc2)C(=O)NNC(=O)c2ccncc2F)ccc1OC(C)CN(C)C.O=C(O)C(F)(F)F` (stereo not drawn) [Example X-254, 4-(1-(4-(2-Dimethylamino-1-methylethoxy)-3-ethoxyphenyl)-2-(N′-(3-fluoropyridine-4-carbonyl)hydrazino)-2-oxoethylamino)benzamidine trifluoroacetate] came in with an IC50 in assay [1] of 50 nM. Moreover, in assay [2], the “h PT × 1.1: compound concentration which produced 10% prolongation compared to the control clotting time” value came to 0.59 µM.
